Data set [1] in a line: Pharmacokinetics in male SD rats after intravenous and oral administration. It counts as in vivo. How it is done:
Preparation of test compound solution: The test compound was formulated with 5% dimethylsulfoxide, 5% Solutol HS 15 and 90% physiological saline to give solution, which was used for oral and intravenous administration.
Male SD rats weighing 190-250 g were randomly divided into two groups, each group had three members; one group received test compound at a dose of 1.0 mg/kg by intravenous injection, the other group received test compound at a dose of 2.5 or 5.0 mg/kg by oral. After dosing, blood samples were collected at time points of 0.0833, 0.25, 0.5, 1.0, 2.0, 4.0, 7.0 and 24 h. Standard curve was plotted based on concentrations of the samples in a suitable range, the concentrations of test compounds in plasma samples were determined by using AB SCIEX API4000 LC-MS/MS in MRM mode. Pharmacokinetic parameters were calculated according to drug concentration-time curve using a noncompartmental method by WinNonLin 6.3 software.

The target in another data set is T1, hERG potassium channel (Homo sapiens, UniProt Q12809).
T1 construct: expressed in transfected cells; host or cells: HEK293
T1 sequence (Q12809 whole entry): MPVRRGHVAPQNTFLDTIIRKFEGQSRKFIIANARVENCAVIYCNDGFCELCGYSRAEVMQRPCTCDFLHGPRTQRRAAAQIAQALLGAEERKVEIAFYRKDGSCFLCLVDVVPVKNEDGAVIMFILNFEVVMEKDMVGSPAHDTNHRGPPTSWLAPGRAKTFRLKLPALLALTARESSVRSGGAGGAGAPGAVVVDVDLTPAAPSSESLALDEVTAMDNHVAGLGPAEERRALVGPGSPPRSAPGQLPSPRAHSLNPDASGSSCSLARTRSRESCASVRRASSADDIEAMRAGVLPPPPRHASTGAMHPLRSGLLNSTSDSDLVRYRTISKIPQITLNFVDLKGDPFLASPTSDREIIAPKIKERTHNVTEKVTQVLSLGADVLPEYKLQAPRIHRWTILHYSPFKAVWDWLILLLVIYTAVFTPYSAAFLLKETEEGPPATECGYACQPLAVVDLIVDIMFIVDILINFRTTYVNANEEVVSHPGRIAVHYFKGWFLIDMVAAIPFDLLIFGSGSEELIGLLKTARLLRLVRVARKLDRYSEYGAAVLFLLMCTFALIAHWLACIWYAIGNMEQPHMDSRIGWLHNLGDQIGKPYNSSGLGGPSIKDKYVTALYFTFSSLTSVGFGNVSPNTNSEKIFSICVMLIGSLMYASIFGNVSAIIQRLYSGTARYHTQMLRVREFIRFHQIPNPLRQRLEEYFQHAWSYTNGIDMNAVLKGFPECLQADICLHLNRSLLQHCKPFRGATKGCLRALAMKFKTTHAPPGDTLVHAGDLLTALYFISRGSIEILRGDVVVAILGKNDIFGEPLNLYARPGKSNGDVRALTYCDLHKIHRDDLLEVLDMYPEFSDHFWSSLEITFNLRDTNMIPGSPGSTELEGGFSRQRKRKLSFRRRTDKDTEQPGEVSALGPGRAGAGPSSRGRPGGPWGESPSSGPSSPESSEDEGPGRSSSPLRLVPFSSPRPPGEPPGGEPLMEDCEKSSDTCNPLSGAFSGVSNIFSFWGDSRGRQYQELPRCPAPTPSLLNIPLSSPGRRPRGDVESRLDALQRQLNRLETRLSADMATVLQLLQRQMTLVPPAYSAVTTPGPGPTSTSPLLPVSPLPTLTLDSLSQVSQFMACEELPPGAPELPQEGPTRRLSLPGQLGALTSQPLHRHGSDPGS
The data set can be described thus: Inhibition of hERG potassium channel, manual patch clamp in HEK293 cells. It counts as cell-based. Conditions: hERG tail current; HEK293 cells overexpressing hERG; whole cell patch clamp; 22-24° C. How it is done: Each compound was weighed and dissolved in DMSO and diluted with DMSO to a serial solution (30, 10, 3.3, 1.1, 0.37 mM). The above serial solutions were diluted to 1000-fold with the extracellular fluid to prepare test solutions (final concentration was 30, 10, 3.3, 1.1, 0.37 μM respectively).
The HEK293 cells that overexpressed the hERG potassium channel were cultured in a 37° C., 5% CO2 incubator, and the culture medium contained DMEM, 15% fetal bovine serum, and 1% penicillin-streptomycin. When the cell density reached 80% of the culture plate, the cells were digested with trypsin/EDTA and transferred to a centrifuge tube, centrifuged at 1000 rpm for 3 minutes, then supernatant was discarded, and the cell culture medium was added. The cells were mixed uniformly by gently blowing and beating. […]
The whole cell recording mode was used to record the channel current in the experiment. Firstly, the extracellular fluid was perfused (approximately 2 mL per minute) and the data were continuous recorded, and the current was kept steady (the current decay was less than 5% in 5 minutes). […] The extracellular fluid containing the test compound was then perfused and the data were continuous recorded until the compound's inhibitory effect on the hERG current reached a steady state, at this time point the peak value of tail current was the current value after dosing. […]

1 molecule from patent US11242335B2, “Fluorine-substituted indazole compounds and uses thereof” (SUNSHINE LAKE PHARMA CO., LTD., priority 2017, dated 2022) can be followed below.

pIC50: −log10 of the molar value.

For `COC(=O)Nc1c(N)nc(-c2nn(Cc3ccccc3F)c3c(F)cccc23)nc1N` [Example 10, methyl (4,6-diamino-2-(7-fluoro-1-(2-fluorobenzyl)-1H-indazol-3-yl)pyrimidin-5-yl)carbamate], the F in data set [1] (po 5 mg/kg versus iv 1 mg/kg) turned out to be 99.6%. Moreover, in data set [1] (rat, plasma, iv, 1 mg/kg), the AUC(0-t) was determined as 7520 ng·h/mL, the concentration peaked (Cmax) at 1500 ng/mL, the Tmax was 0.083 h and the clearance is 2.21 mL/min/kg. The molecule also gave a half-life in data set [1] (rat, plasma, iv, 1 mg/kg) of 3.54 h. Further, in data set [1] (rat, plasma, iv, 1 mg/kg, read-out: Vss), the Vd amounted to 0.63 L/kg. Moreover, in data set [1] (rat, plasma, po, 5 mg/kg), the AUC(0-t) amounted to 37500 ng·h/mL, the concentration peaked (Cmax) at 3070 ng/mL, the Tmax worked out at 2 h and the half-life is 4.34 h. Further, the pIC50 against hERG potassium channel was 4.70.
